According to patent US20110251143A1, “STABLE ELSAMITRUCIN SALT FORMULATIONS” (Spectrum Pharmaceuticals, Inc., priority 2007, published 2011):

Assays:
[1] = test system: B16F10 murine melanoma cells; assay: MTT cell growth inhibition, B16F10; format: cell-based; conditions: 5-10 days
Protocol: (§1) The following experiment confirms that the elsamitrucin salts made in accordance with the teachings of the present disclosure retain their in vitro anti-neoplastic activity when compared to elsamitrucin base. Elsamitrucin and elsamitrucin tosylate were tested in vitro using: B16F10 (murine […]), HCT 116 (human colon), HT29 (human colon) and SK-MES-1 (human non-small cell lung carcinoma). Cell growth inhibition was evaluated in 96-well micro-culture plates with a semi-automated MTT (3-(4,5-dimethylthiazol-2-yl)-2,5-diphenyltetrazolium bromide) assay. […]
(§2) Cell culture plates seeded with test cells and various concentrations of elsamitrucin solutions were placed in a humidified incubator at 37° C., with CO2 and 95% air for 5-10 days. […] Absorbance was monitored at a wavelength of 595 nm, and at a reference wavelength of 650 nm, using a TECAN® GENios mocroplate reader. In all experiments, absorbance data was acquired for each agent at two overlapping concentration ranges. […]
(§3) The results of each test were stored and imported into PRISM® 3.03 for graphical analysis and determination of IC50 values. All results were graphed as a percentage of controlled absorbance versus the drug concentration. […]

[2] = test system: HT29 human colon carcinoma; assay: MTT cell growth inhibition, HT29; format: cell-based; conditions: 5-10 days
Protocol: as §1, §2, §3

[3] = solution stability in benzoate buffer (HPLC, MS); format: physicochemical; conditions: benzoate buffer (pH 4), 50° C., ten days, samples at 3, 5, 10 days
Protocol: (§4) Elsamitrucin salts made in accordance with the teachings of the present disclosure were tested for stability. Two samples of the isolated p-TSA salt (40 mg each) were placed in a vacuum oven at 75° C. for nine hours. After this exposure, sample #1 was taken out, the temperature was increased to 98° C. and the second sample was dried overnight. […] The weight loss by TGA was approximately 2.5% for both samples. Karl Fischer analysis indicated the two lots still had water present: sample #1 had 4.0% water content and #2 had 4.6%. The p-TSA salt (16 mg) of elsamitrucin was dissolved in 1.6 mL of benzoate buffer (pH 4) and stirred at 50° C. for ten days. Samples for HPLC and MS were taken in 3, 5, and 10 days.

[4] = test system: HCT 116 human colon carcinoma; assay: MTT cell growth inhibition, HCT 116; format: cell-based; conditions: HCT 116, MTT, 5-10 days
Protocol: as §1, §2, §3

[5] = solubility of the p-TSA salt checked by HPLC; format: physicochemical; conditions: for solubility at pH 4 / Concentration (mg/mL) / solubility in water / Concentration: HPLC; for solubility in water / Concentration: slurry stirred at room temperature for six hours
Source text: The solubility of the p-TSA salt in water was checked by HPLC after stirring the slurry at room temperature for six hours.

[6] = solid state stability, drying at elevated temperatures (NMR); format: physicochemical; conditions: vacuum oven 75° C. nine hours; 98° C. overnight; NMR 1:1 salt ratio
Protocol: as §4

[7] = test system: SK-MES-1 human non-small cell lung carcinoma; assay: MTT cell growth inhibition, SK-MES-1; format: cell-based; conditions: SK-MES-1, MTT, 5-10 days
Protocol: as §1, §2, §3

With “elsamitrucin tosylate [Elsamitrucin p-TSA Salt]” the IC50 [1] was 28 nM, the IC50 [2] was 105 nM and the decomposition in solution [3] was “No evidence of the decomposition product”. The IC50 [4] was 79 nM, the “Vial Concentration” value ([5]; pH 4 (benzoate buffer)) was 0.01789 M and the “solubility at pH 4 / Concentration (mg/mL)” value ([5]; pH 4 (benzoate buffer)) was 14.7 mg/mL. The “solubility at pH 4 / Concentration (mg/mL)” value ([5]; pH 4 (benzoate buffer), listed as OVL-A-143) was 14.78 mg/mL, the “Vial Concentration” value ([5]; water) was 0.01891 M and the “solubility in water / Concentration” value ([5]; water) was 15.6 mg/mL. For the same substance, the “solubility in water / Concentration” value ([5]; water, listed as OVL-A-137) was 15.61 mg/mL, the “decomposition in the solid state during drying” value [6] was “no decomposition” and the IC50 [7] was 45 nM.
